These results are taken from patent US20230295157A1, “3-(1H-IMIDAZOL-2-YL)-2,3,8,8A-TETRAHYDROINDOLIZIN-5(1H)-ONE DERIVATIVES USEFUL AS FACTOR XIA INHIBITORS” (JANSSEN PHARMACEUTICA NV, priority 2020, published 2023).

One assay concerns the target human plasma kallikrein (Homo sapiens (Human), UniProt P03952). Put plainly: Kallikrein inhibition assay (FLINT) utilizing a quenched AMC peptide substrate. The format is biochemical. The following applies: 30 min preincubation, read-out: Kallikrein Kin Inh IC50. An outline of the steps:
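Enzyme (2 nM final) pre-incubated 30 min at room temperature with compound (11-point, 3-fold, top 1 μM, 2% DMSO), then 50 μM Z-Gly-Pro-Arg-AMC added in Tris pH 7.5 buffer. Kinetic fluorescence 340/440 nm every 5 min over 30 min; IC50 from 4-parameter logistic fit.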

The target of the next assay is Factor XIa (Homo sapiens (Human), UniProt P03951). Put plainly: Factor XIa inhibition assay (FLINT) utilizing a fluorophore-quencher pair peptide substrate. Type of assay: biochemical. The following applies: 30 min preincubation, kinetic reads over 30 min, read-out: FXIa Kin Inh IC50. Summed up:
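FXIa ([…]) preincubated 30 min with compound (11-point 3-fold dilution, top 100 nM, 2% DMSO), then 15 μM quenched FXI Arg146-based peptide added; Tris pH 7.5, CaCl2, BSA, CHAPS. Fluorescence 485/520 nm read kinetically every 5 min over 30 min at RT; IC50 by 4-parameter fit.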

Where [1] appears, read: kinetic reads over 30 min, Z-Gly-Pro-Arg-AMC substrate 50 μM.
Setting [2] is: 5Fam-KLTRAETV-K5Tamra substrate 15 μM.

Where two headings read alike, the source gives them in different places.

human plasma kallikrein, sequence (P03952 391-638): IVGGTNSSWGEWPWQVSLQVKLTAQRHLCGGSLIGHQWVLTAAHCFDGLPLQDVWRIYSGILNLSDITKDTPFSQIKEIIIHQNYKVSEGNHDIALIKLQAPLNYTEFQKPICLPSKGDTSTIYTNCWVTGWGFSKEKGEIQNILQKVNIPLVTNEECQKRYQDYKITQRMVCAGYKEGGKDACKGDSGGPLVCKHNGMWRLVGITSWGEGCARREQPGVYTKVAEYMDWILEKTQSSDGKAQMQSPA
human plasma kallikrein, sequence (P03952 20-390 partner): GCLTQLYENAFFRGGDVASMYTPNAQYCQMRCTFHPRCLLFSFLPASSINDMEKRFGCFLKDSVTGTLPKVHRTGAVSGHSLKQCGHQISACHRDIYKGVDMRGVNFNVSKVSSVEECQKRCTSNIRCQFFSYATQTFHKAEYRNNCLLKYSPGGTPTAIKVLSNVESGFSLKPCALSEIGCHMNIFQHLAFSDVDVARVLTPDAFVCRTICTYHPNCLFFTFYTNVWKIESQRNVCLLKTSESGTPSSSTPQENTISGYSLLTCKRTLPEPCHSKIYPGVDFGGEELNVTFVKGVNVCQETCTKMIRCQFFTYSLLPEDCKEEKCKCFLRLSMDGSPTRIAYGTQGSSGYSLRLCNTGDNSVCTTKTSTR
Factor XIa, sequence (P03951 388-625): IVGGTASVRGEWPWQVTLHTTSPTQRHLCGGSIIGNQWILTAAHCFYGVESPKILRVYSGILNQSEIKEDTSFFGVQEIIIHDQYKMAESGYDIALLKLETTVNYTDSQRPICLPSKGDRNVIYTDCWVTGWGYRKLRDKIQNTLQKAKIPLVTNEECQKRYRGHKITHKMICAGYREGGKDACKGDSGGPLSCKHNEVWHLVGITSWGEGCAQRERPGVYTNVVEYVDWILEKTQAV
Factor XIa, sequence (P03951 19-387 partner): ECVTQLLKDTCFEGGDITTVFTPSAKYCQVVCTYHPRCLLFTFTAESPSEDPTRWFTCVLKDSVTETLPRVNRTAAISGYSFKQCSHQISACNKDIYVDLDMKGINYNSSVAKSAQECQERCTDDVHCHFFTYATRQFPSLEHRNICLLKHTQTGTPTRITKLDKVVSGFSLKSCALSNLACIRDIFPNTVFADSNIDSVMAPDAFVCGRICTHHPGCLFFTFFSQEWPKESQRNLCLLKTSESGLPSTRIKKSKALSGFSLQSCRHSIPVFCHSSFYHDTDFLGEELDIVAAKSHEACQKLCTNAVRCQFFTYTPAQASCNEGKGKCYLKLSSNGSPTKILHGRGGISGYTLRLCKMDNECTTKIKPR

In the case of `CO[C@H]1C[C@@H](c2nc(-c3ccc(N)nc3F)c[nH]2)N2C(=O)C=C(c3c(-n4cnnn4)ccc(Cl)c3F)CC12` (stereo partly drawn) [Example 285, (1 S,3S)-3-(4-(6-Amino-2-fluoropyridin-3-yl)-1H-imidazol-2-yl)-7-(3-chloro-2-fluoro-6-(1H-tetrazol-1-yl)phenyl)-1-methoxy-2,3,8,8a-tetrahydroindolizin-5(1H)-one], the half-inhibitory concentration (IC50) was determined as 0.207 µM on human plasma kallikrein (setting [1]) and 9.1 nM on Factor XIa (setting [2]).
For `CNC(=O)c1ccccc1-c1cnc([C@@H]2CCC3CC(c4c(-n5cnnn5)ccc(Cl)c4F)=CC(=O)N32)[nH]1` (stereo partly drawn) [Example 287, 2-(2-((3S)-7-(3-chloro-2-fluoro-6-(1H-tetrazol-1-yl)phenyl)-5-oxo-1,2,3,5,8,8a-hexahydroindolizin-3-yl)-1H-imidazol-5-yl)-N-methylbenzamide] the same measures were 0.38 µM and ~30.4 nM.
`CN(C)C(=O)c1ccccc1-c1c[nH]c([C@@H]2CCC3CC(c4c(-n5cnnn5)ccc(Cl)c4F)=CC(=O)N32)n1` (stereo partly drawn) [Example 288, 2-(2-((3S)-7-(3-Chloro-2-fluoro-6-(1H-tetrazol-1-yl)phenyl)-5-oxo-1,2,3,5,8,8a-hexahydroindolizin-3-yl)-1H-imidazol-4-yl)-N,N-dimethylbenzamide]: the half-maximal inhibitory concentration (IC50) is 1.1 µM at human plasma kallikrein (μM, kinetic reads) and > 200 nM on Factor XIa (setting [2]).
Turning to `CN(C)c1ccccc1-c1c[nH]c([C@@H]2CCC3CC(c4c(-n5cnnn5)ccc(Cl)c4F)=CC(=O)N32)n1` (stereo partly drawn) [Example 289, (3S)-7-(3-Chloro-2-fluoro-6-(1H-tetrazol-1-yl)phenyl)-3-(4-(2-(dimethylamino)phenyl)-1H-imidazol-2-yl)-2,3,8,8a-tetrahydroindolizin-5(1H)-one], the IC50 is 0.492 µM on human plasma kallikrein (setting [1]) and > 200 nM on Factor XIa (5Fam-[…]-K5Tamra substrate 15 μM).
For the molecule `NC(=O)c1ccccc1-c1cnc([C@@H]2CCC3CC(c4c(-n5cnnn5)ccc(Cl)c4F)=CC(=O)N32)[nH]1` (stereo partly drawn) [Example 290, 2-(2-((3S)-7-(3-Chloro-2-fluoro-6-(1H-tetrazol-1-yl)phenyl)-5-oxo-1,2,3,5,8,8a-hexahydroindolizin-3-yl)-1H-imidazol-5-yl)benzamide], the concentration for half-maximal inhibition (IC50) at human plasma kallikrein (μM, kinetic reads) was 1.2 µM; on Factor XIa (setting [2]) it was 134 nM.
Regarding `CNc1ccc(-c2cnc([C@@H]3CC[C@H]4CC(c5c(-n6cnnn6)ccc(Cl)c5F)=CC(=O)N43)[nH]2)c(F)n1` [Example 291, (3S,8aS)-7-(3-Chloro-2-fluoro-6-(1H-tetrazol-1-yl)phenyl)-3-(5-(2-fluoro-6-(methylamino)pyridin-3-yl)-1H-imidazol-2-yl)-2,3,8,8a-tetrahydroindolizin-5(1H)-one], the IC50 was 0.0074 µM at human plasma kallikrein (setting [1]) and 0.5 nM on Factor XIa (setting [2]).
For `O=C1C=C(c2c(-n3cnnn3)ccc(Cl)c2F)C[C@@H]2CC[C@@H](c3ncc(-c4ccc5[nH]c(=O)[nH]c5c4)[nH]3)N12` [Example 292, 5-(2-((3S,8aS)-7-(3-Chloro-2-fluoro-6-(1H-tetrazol-1-yl)phenyl)-5-oxo-1,2,3,5,8,8a-hexahydroindolizin-3-yl)-1H-imidazol-5-yl)-1,3-dihydro-2H-benzo[d]imidazol-2-one] the same measures were 0.0007 µM and 0.3 nM.
Regarding `CS(=O)(=O)Nc1ccccc1-c1c[nH]c([C@@H]2CCC3CC(c4c(-n5cnnn5)ccc(Cl)c4F)=CC(=O)N32)n1` (stereo partly drawn) [Example 293, N-(2-(2-((3S)-7-(3-Chloro-2-fluoro-6-(1H-tetrazol-1-yl)phenyl)-5-oxo-1,2,3,5,8,8a-hexahydroindolizin-3-yl)-1H-imidazol-4-yl)phenyl)methanesulfonamide], the half-inhibitory concentration (IC50) was determined as 1.2 µM on human plasma kallikrein (μM, kinetic reads) and 79.7 nM at Factor XIa (setting [2]).
Take `CC(C)Oc1ccccc1-c1cnc([C@@H]2CCC3CC(c4c(-n5cnnn5)ccc(Cl)c4F)=CC(=O)N32)[nH]1` (stereo partly drawn) [Example 294]: the IC50 worked out at 0.0462 µM on human plasma kallikrein (setting [1]) and 77 nM at Factor XIa (setting [2]).
For `O=C1Nc2ccc(-c3cnc([C@@H]4CCC5CC(c6c(-n7cnnn7)ccc(Cl)c6F)=CC(=O)N54)[nH]3)cc2CO1` (stereo partly drawn) [Example 297, 6-(2-((3S)-7-(3-Chloro-2-fluoro-6-(1H-tetrazol-1-yl)phenyl)-5-oxo-1,2,3,5,8,8a-hexahydroindolizin-3-yl)-1H-imidazol-5-yl)-1H-benzo[d][1,3]oxazin-2(4H)-one] the same measures were 0.001 µM and 0.3 nM.
On the same counts, the results for `O=C(Nc1ccccc1-c1cnc([C@@H]2CC[C@@H]3CC(c4c(-n5cnnn5)ccc(Cl)c4F)=CC(=O)N32)[nH]1)C1CC1` [Example 307, N-(2-(2-((3S,8aR)-7-(3-Chloro-2-fluoro-6-(1H-tetrazol-1-yl)phenyl)-5-oxo-1,2,3,5,8,8a-hexahydroindolizin-3-yl)-1H-imidazol-4-yl)phenyl)cyclopropanecarboxamide] are 0.0007 µM and 0.3 nM.
`O=C1C=C(c2c(-n3cnnn3)ccc(Cl)c2F)CC2CC[C@@H](c3ncc(-c4ccc5[nH]c(=O)oc5c4)[nH]3)N12` (stereo partly drawn) [Example 309, 6-(2-((3S)-7-(3-Chloro-2-fluoro-6-(1H-tetrazol-1-yl)phenyl)-5-oxo-1,2,3,5,8,8a-hexahydroindolizin-3-yl)-1H-imidazol-4-yl)benzo[d]oxazol-2(3H)-one]: the IC50 on human plasma kallikrein (setting [1]) was 0.0013 µM; at Factor XIa (setting [2]), 1.9 nM.
For `O=C1CCc2cc(-c3cnc([C@@H]4CCC5CC(c6c(-n7cnnn7)ccc(Cl)c6F)=CC(=O)N54)[nH]3)ccc2N1` (stereo partly drawn) [Example 311, 6-(2-((3S)-7-(3-Chloro-2-fluoro-6-(1H-tetrazol-1-yl)phenyl)-5-oxo-1,2,3,5,8,8a-hexahydroindolizin-3-yl)-1H-imidazol-5-yl)-3,4-dihydroquinolin-2(1H)-one] the same measures were 0.0007 µM and 0.3 nM.
For `O=C1C=C(c2c(-n3cnnn3)ccc(Cl)c2F)CC2CC[C@@H](c3ncc(-c4ccc5[nH]c(=O)[nH]c5c4)[nH]3)N12` (stereo partly drawn) [Example 312, 5-(2-((3S)-7-(3-Chloro-2-fluoro-6-(1H-tetrazol-1-yl)phenyl)-5-oxo-1,2,3,5,8,8a-hexahydroindolizin-3-yl)-1H-imidazol-5-yl)-1H-benzo[d]imidazol-2(3H)-one], the IC50 at human plasma kallikrein (setting [1]) was found to be 0.0006 µM; on Factor XIa (setting [2]), 0.3 nM.
On the same counts, the results for `Nc1n[nH]c2cc(-c3cnc([C@@H]4CCC5CC(c6c(-n7cnnn7)ccc(Cl)c6F)=CC(=O)N54)[nH]3)ccc12` (stereo partly drawn) [Example 313, (3S)-3-(5-(3-Amino-1H-indazol-6-yl)-1H-imidazol-2-yl)-7-(3-chloro-2-fluoro-6-(1H-tetrazol-1-yl)phenyl)-2,3,8,8a-tetrahydroindolizin-5(1H)-one] are 0.0006 µM and 0.2 nM.
On the same counts, the results for `O=C1Cc2cc(-c3cnc([C@@H]4CCC5CC(c6c(-n7cnnn7)ccc(Cl)c6F)=CC(=O)N54)[nH]3)ccc2N1` (stereo partly drawn) [Example 314, 5-(2-((3S)-7-(3-Chloro-2-fluoro-6-(1H-tetrazol-1-yl)phenyl)-5-oxo-1,2,3,5,8,8a-hexahydroindolizin-3-yl)-1H-imidazol-5-yl)indolin-2-one] are 0.0032 µM and 1 nM.
As to `CN(C)c1ccc(-c2cnc([C@@H]3CCC4CC(c5c(-n6cnnn6)ccc(Cl)c5F)=CC(=O)N43)[nH]2)c(F)n1` (stereo partly drawn) [Example 315, (3S)-7-(3-Chloro-2-fluoro-6-(1H-tetrazol-1-yl)phenyl)-3-(5-(6-(dimethylamino)-2-fluoropyridin-3-yl)-1H-imidazol-2-yl)-2,3,8,8a-tetrahydroindolizin-5(1H)-one], the values for the IC50 at human plasma kallikrein (setting [1]) and at Factor XIa (setting [2]) were 0.0348 µM and 31.1 nM, respectively.
On the same counts, the results for `COC(=O)Nc1ccc(-c2cnc([C@@H]3CC[C@@H]4CC(c5c(-n6cnnn6)ccc(Cl)c5F)=CC(=O)N43)[nH]2)nc1` [Example 316, Methyl (6-(2-((3S,8aR)-7-(3-chloro-2-fluoro-6-(1H-tetrazol-1-yl)phenyl)-5-oxo-1,2,3,5,8,8a-hexahydroindolizin-3-yl)-1H-imidazol-5-yl)pyridin-3-yl)carbamate] are 0.0255 µM and 5 nM.
For `COc1ccccc1-c1c[nH]c([C@@H]2CCC3CC(c4c(-n5cnnn5)ccc(Cl)c4F)=CC(=O)N32)n1` (stereo partly drawn) [Example 317, (3S)-7-(3-Chloro-2-fluoro-6-(1H-tetrazol-1-yl)phenyl)-3-(4-(2-methoxyphenyl)-1H-imidazol-2-yl)-2,3,8,8a-tetrahydroindolizin-5(1H)-one] the same measures were 0.0129 µM and 5.3 nM.
As for `O=C1OCCN1c1ccc(-c2cnc([C@@H]3CCC4CC(c5c(-n6cnnn6)ccc(Cl)c5F)=CC(=O)N43)[nH]2)cc1` (stereo partly drawn) [Example 318, 3-(4(2-((3S)-7-(3-Chloro-2-fluoro-6-(1H-tetrazol-1-yl)phenyl)-5-oxo-1,2,3,5,8,8a-hexahydroindolizin-3-yl)-1H-imidazol-5-yl)phenyl)oxazolidin-2-one], the values for the IC50 at human plasma kallikrein (setting [1]) and on Factor XIa (setting [2]) were 0.0715 µM and 54.1 nM, respectively.
On the same counts, the results for `COC(=O)Nc1ccc(-c2cnc([C@@H]3CCC4CC(c5c(OCC(F)(F)F)ccc(Cl)c5F)=CC(=O)N43)[nH]2)cc1` (stereo partly drawn) [Example 324, Methyl (4-(2-((3S)-7-(3-Chloro-2-fluoro-6-(2,2,2-trifluoroethoxy)phenyl)-5-oxo-1,2,3,5,8,8a-hexahydroindolizin-3-yl)-1H-imidazol-5-yl)phenyl)carbamate] are 0.095 µM and 14.3 nM.

Broadly, the IC50 is the concentration at which inhibition is half-maximal.
